Data on two molecules can be found in paper PMC9239247, “Listeria monocytogenes TcyKLMN Cystine/Cysteine Transporter Facilitates Glutathione Synthesis and Virulence Gene Expression” (mBio, 2022).

SMILES strings stand for the structures.

This experiment has as its target T1, TcyK (Listeria monocytogenes, UniProt A0A0H3GMT4).
T1 construct: gene LMRG_01494; residues 38-286, without membrane-anchoring domain; N-terminal His-tag (pET-19b, cleavage not mentioned); codon-optimised, E. coli BL21-Gold(DE3)
The experiment can be described thus: isothermal titration calorimetry. The format is binding. On the technique in general: In ITC the heat of successive injections is recorded.

T1 sequence (A0A0H3GMT4 entry or part of it): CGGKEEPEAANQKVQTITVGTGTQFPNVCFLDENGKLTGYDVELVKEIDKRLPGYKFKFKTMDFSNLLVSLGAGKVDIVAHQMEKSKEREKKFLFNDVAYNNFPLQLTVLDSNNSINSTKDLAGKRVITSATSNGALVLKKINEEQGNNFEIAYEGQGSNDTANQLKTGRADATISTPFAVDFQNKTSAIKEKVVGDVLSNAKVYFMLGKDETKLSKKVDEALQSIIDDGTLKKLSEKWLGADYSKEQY

Consider `N[C@@H](CSSC[C@H](N)C(=O)O)C(=O)O` [CSSC, cystine], for which the Kd (as a rule, a measure of binding affinity in units of concentration) was roughly 13 µM.
Molecule `N[C@@H](CS)C(=O)O` [Cys, L-cysteine] yielded a Kd of roughly 66.7 µM.
